Molecular target: SARS-CoV-2 main protease (M^pro) (Severe acute respiratory syndrome coronavirus 2, UniProt P0DTD1)
Assay: Rapid-Fire MS Biochemical Assay measuring Mpro activity (5 nM Mpro)
Details: Table 1B, Mpro inhibition, 5 μM substrate peptide, 120 min, read-out: Rapid-Fire Assay IC50

Row | SMILES | IC50
1 | N#Cc1ccc(Cl)cc1N1C[C@@H](C#N)N(c2cncc3ccccc23)C1=O (single isomer, unassigned) [Compound 20b] | > 1000 nM
2 | N#C[C@@H]1CN([C@H]2CCC(F)(F)C2)C(=O)N1c1cncc2ccccc12 (single isomer, unassigned) [Compound 141b, (S)-1-((S)-3,3-difluorocyclopentyl)-3-(isoquinolin-4-yl)-2-oxoimidazolidine-4-carbonitrile or (S)-1-((R)-3,3-difluorocyclopentyl)-3-(isoquinolin-4-yl)-2-oxoimidazolidine-4-carbonitrile] | > 1000 nM
3 | CS(=O)(=O)c1ccc2cncc(N3C(=O)N(c4cccc(Cl)c4)CC3C#N)c2c1 (racemic) [Compound 37, 1-(3-chlorophenyl)-3-(6-(methylsulfonyl)isoquinolin-4-yl)-2-oxoimidazolidine-4-carbonitrile] | < 20 nM
4 | CC1CC(N2CC(C#N)N(c3cncc4ccccc34)C2=O)C1 (single isomer, unassigned) [Compound 120a] | < 20 nM
5 | COc1ccc(Cl)cc1N1C[C@H](C#N)N(c2cncc3ccccc23)C1=O (single isomer, unassigned) [Compound 115a] | < 20 nM
6 | CC(=O)N1CC(N2C[C@@H](C#N)N(c3cncc4ccccc34)C2=O)C1 (single isomer, unassigned) [Compound 134b] | > 1000 nM
7 | COc1cc(N2C[C@H](C#N)N(c3cncc4ccccc34)C2=O)ccn1 (single isomer, unassigned) [Compound 23a] | < 20 nM
8 | N#C[C@@H]1CN(C23CC(F)(C2)C3)C(=O)N1c1cncc2ccccc12 (single isomer, unassigned) [Compound 139b] | > 1000 nM
9 | N#C[C@H]1CN([C@H]2C[C@@H](C3CC3)C2)C(=O)N1c1cncc2ccccc12 [Compound 124a, (R)-1-((1s,3S)-3-cyclopropylcyclobutyl)-3-(isoquinolin-4-yl)-2-oxoimidazolidine-4-carbonitrile] | < 20 nM
10 | N#Cc1ccc2cncc(N3C(=O)N(c4cccc(Cl)c4)C[C@@H]3C#N)c2c1 (single isomer, unassigned) [Compound 39a] | < 20 nM
11 | N#C[C@H]1CN(C2CCC(F)(F)CC2)C(=O)N1c1cncc2ccccc12 (single isomer, unassigned) [Compound 138a] | < 20 nM
12 | Cc1ccc(C(F)(F)F)nc1N1C[C@@H](C#N)N(c2cncc3ccccc23)C1=O (single isomer, unassigned) [Compound 82b] | > 1000 nM
13 | COc1ccc(C#N)cc1N1C[C@@H](C#N)N(c2cncc3ccccc23)C1=O (single isomer, unassigned) [Compound 15b] | > 1000 nM
14 | N#C[C@H]1CN([C@@H]2CCN(C(=O)CO)C2)C(=O)N1c1cncc2ccccc12 (single isomer, unassigned) [Compound 25a] | 200 to 1000 nM
15 | C[C@H]1C[C@H](N2C[C@H](C#N)N(c3cncc4ccccc34)C2=O)C1 [Compound 120b, (R)-3-(isoquinolin-4-yl)-1-((1 r,3R)-3-methylcyclobutyl)-2-oxoimidazolidine-4-carbonitrile] | 20 to 200 nM
16 | N#Cc1ccc(C(F)(F)F)cc1N1CC(C#N)N(c2cncc3ccccc23)C1=O (racemic) [Compound 90, 1-(2-cyano-5-(trifluoromethyl)phenyl)-3-(isoquinolin-4-yl)-2-oxoimidazolidine-4-carbonitrile] | < 20 nM
17 | COc1cc(Cl)cnc1N1CC(C#N)N(c2cncc3ccccc23)C1=O (racemic) [Compound 58, 1-(5-chloro-3-methoxypyridin-2-yl)-3-(isoquinolin-4-yl)-2-oxoimidazolidine-4-carbonitrile] | 200 to 1000 nM
18 | N#CC1CN(c2cccc(C(F)(F)F)c2)C(=O)N1c1cncc2ccccc12 (racemic) [Compound 106, 3-(isoquinolin-4-yl)-2-oxo-1-(3-(trifluoromethyl)phenyl)imidazolidine-4-carbonitrile] | > 1000 nM

Row | SMILES | IC50
19 | N#C[C@@H]1CN(C23CC(C(F)(F)F)(C2)C3)C(=O)N1c1cncc2ccccc12 (single isomer, unassigned) [Compound 137b] | > 1000 nM
20 | CC(C)(O)c1ccc(N2C[C@@H](C#N)N(c3cncc4ccccc34)C2=O)cc1 (single isomer, unassigned) [Compound 84b] | > 1000 nM
21 | N#C[C@H]1CN(c2ccc(C(F)(F)F)cn2)C(=O)N1c1cncc2ccccc12 (single isomer, unassigned) [Compound 97a] | < 20 nM
22 | N#C[C@H]1CN(c2ccc(F)nc2)C(=O)N1c1cncc2ccccc12 (single isomer, unassigned) [Compound 55a] | 20 to 200 nM
23 | COc1ccc(Cl)cc1N1C[C@@H](C#N)N(c2cncc3ccccc23)C1=O (single isomer, unassigned) [Compound 115b] | > 1000 nM
24 | COc1cc(C#N)ccc1N1CC(C#N)N(c2cncc3ccccc23)C1=O (racemic) [Compound 19, 1-(4-cyano-2-methoxyphenyl)-3-(isoquinolin-4-yl)-2-oxoimidazolidine-4-carbonitrile] | 200 to 1000 nM
25 | N#C[C@H]1CN(c2ccc(C(F)(F)F)nn2)C(=O)N1c1cncc2ccccc12 (single isomer, unassigned) [Compound 81a] | < 20 nM
26 | N#C[C@@H]1CN(c2ccc(F)c(Cl)c2)C(=O)N1c1cncc2ccccc12 (single isomer, unassigned) [Compound 87b] | > 1000 nM
27 | N#C[C@H]1CN(c2ccc(Cl)cn2)C(=O)N1c1cncc2ccccc12 (single isomer, unassigned) [Compound 41a] | < 20 nM
28 | CC(C)[C@H]1C[C@H](N2C[C@@H](C#N)N(c3cncc4ccccc34)C2=O)C1 [Compound 123d, (S)-1-((1r,3S)-3-isopropylcyclobutyl)-3-(isoquinolin-4-yl)-2-oxoimidazolidine-4-carbonitrile] | > 1000 nM
29 | N#CC1CN(C2CC(F)(F)C2)C(=O)N1c1cncc2ccccc12 (racemic) [Compound 27, 1-(3,3-difluorocyclobutyl)-3-(isoquinolin-4-yl)-2-oxoimidazolidine-4-carbonitrile] | 20 to 200 nM
30 | Cc1cc(N2C[C@H](C#N)N(c3cncc4ccccc34)C2=O)cnc1C (single isomer, unassigned) [Compound 98a] | < 20 nM
31 | COc1ncc(C(F)(F)F)cc1N1C[C@@H](C#N)N(c2cncc3ccccc23)C1=O (single isomer, unassigned) [Compound 100b] | 200 to 1000 nM
32 | N#C[C@@H]1CN([C@H]2C[C@@H](C3CC3)C2)C(=O)N1c1cncc2ccccc12 [Compound 124d, (S)-1-((1s,3R)-3-cyclopropylcyclobutyl)-3-(isoquinolin-4-yl)-2-oxoimidazolidine-4-carbonitrile] | > 1000 nM
33 | COc1cc(C#N)ccc1N1C[C@H](C#N)N(c2cncc3ccccc23)C1=O (single isomer, unassigned) [Compound 19a] | < 20 nM
34 | N#Cc1cc(C(F)(F)F)ncc1N1C[C@@H](C#N)N(c2cncc3ccccc23)C1=O (single isomer, unassigned) [Compound 18b] | > 1000 nM
35 | N#CC1CN(C2CCC(F)CC2)C(=O)N1c1cncc2ccccc12 (single isomer, unassigned) [Compound 121a] | < 20 nM
36 | N#C[C@H]1CN(C2CN(CC(F)(F)F)C2)C(=O)N1c1cncc2ccccc12 (single isomer, unassigned) [Compound 133a] | < 20 nM

From patent publication US20250092016A1, “COMPOUNDS AND COMPOSITIONS FOR THE TREATMENT OF CORONAVIRAL RELATED DISEASES” (priority 2021, published 2025)
